Experiments:
RAW264.7 [1] = test: Anti inflammatory activity in LPS-induced mouse RAW264.7 cells assessed as inhibition of NO production at 2.5 uM preincubated with compound for 2 hrs followed by LPS stimulation and measured after 24 hrs by griess reagent based assay relative to control; type: functional; conditions: time 26 hrs
RAW264.7 [2] = test: Anti inflammatory activity in LPS-induced mouse RAW264.7 cells assessed as inhibition of NO production at 5 uM preincubated with compound for 2 hrs followed by LPS stimulation and measured after 24 hrs by griess reagent based assay relative to control; type: functional; conditions: time 26 hrs
[3] = Cytotoxicity against mouse RAW264.7 cells assessed as cell viability at 40 uM measured after 24 hrs by MTT assay relative to control; type: toxicity, cell-based; conditions: read-out: Activity
RAW264.7 [4] = test: Anti inflammatory activity in LPS-induced mouse RAW264.7 cells assessed as inhibition of NO production preincubated with compound for 2 hrs followed by LPS stimulation and measured after 24 hrs by griess reagent based assay; type: functional, cell-based

Row | IC50 (RAW264.7 [4]) | Structure (SMILES) | inhibition at 2.5 µM (RAW264.7 [1]) | inhibition at 5 µM (RAW264.7 [2]) | viability at 24 h, 40 µM [3]
1 | – | CONC(=O)/C(CCC=C(C)C)=C1\[C@@H](OC(C)=O)C[C@@]2(C)[C@H]1C[C@@H](O)[C@H]1[C@@]3(C)CC[C@@H](O)[C@@H](C)[C@@H]3CC[C@@]12C | 16.5% | 18.3% | 91.4%
2 | – | CC(=O)O[C@H]1C[C@@]2(C)[C@@H](C[C@@H](O)[C@H]3[C@@]4(C)CC[C@@H](OC(=O)c5ccccc5C(=O)NOc5ccc([N+](=O)[O-])cc5)[C@@H](C)[C@@H]4CC[C@@]32C)/C1=C(\CCC=C(C)C)C(=O)OCc1ccccc1 | – | – | 1.66%
3 | – | CC(=O)O[C@H]1C[C@@]2(C)[C@@H](C[C@@H](O)[C@H]3[C@@]4(C)CC[C@@H](OC(=O)CCSSCCC(=O)NOC(C)(C)C)[C@@H](C)[C@@H]4CC[C@@]32C)/C1=C(\CCC=C(C)C)C(=O)OCc1ccccc1 | – | – | 76%
4 | 8.92 µM | C=CCONC(=O)c1ccccc1C(=O)O[C@@H]1CC[C@@]2(C)[C@@H](CC[C@@]3(C)[C@H]2[C@H](O)C[C@H]2/C(=C(\CCC=C(C)C)C(=O)OCc4ccccc4)[C@@H](OC(C)=O)C[C@@]23C)[C@@H]1C | 24.7% | 39.3% | 101%
5 | 1.14 µM | O=C(Nc1ccc(I)cc1)c1ccc([N+](=O)[O-])o1 | – | – | –
6 | 11.6 µM | CC(=O)O[C@H]1C[C@@]2(C)[C@@H](C[C@@H](O)[C@H]3[C@@]4(C)CC[C@@H](OC(=O)c5ccccc5C(=O)N5CCCCC5)[C@@H](C)[C@@H]4CC[C@@]32C)/C1=C(\CCC=C(C)C)C(=O)OCc1ccccc1 | 16.9% | 30.8% | 103%
7 | – | CC(=O)O[C@H]1C[C@@]2(C)[C@@H](C[C@@H](O)[C@H]3[C@@]4(C)CC[C@@H](O)[C@@H](C)[C@@H]4CC[C@@]32C)/C1=C(\CCC=C(C)C)C(=O)NOc1ccc([N+](=O)[O-])cc1 | – | – | 56.5%
8 | – | CC(=O)O[C@H]1C[C@@]2(C)[C@@H](C[C@@H](O)[C@H]3[C@@]4(C)CC[C@@H](O)[C@@H](C)[C@@H]4CC[C@@]32C)/C1=C(\CCC=C(C)C)C(=O)NOCc1ccccc1 | – | – | 0.07%
9 | – | CC(=O)O[C@H]1C[C@@]2(C)[C@@H](C[C@@H](O)[C@H]3[C@@]4(C)CC[C@@H](OC(=O)c5ccccc5C(=O)n5cccn5)[C@@H](C)[C@@H]4CC[C@@]32C)/C1=C(\CCC=C(C)C)C(=O)OCc1ccccc1 | – | – | 76.6%
10 | – | CC(=O)O[C@H]1C[C@@]2(C)[C@@H](C[C@@H](O)[C@H]3[C@@]4(C)CC[C@@H](OC(=O)c5ccccc5C(=O)NOCc5ccccc5)[C@@H](C)[C@@H]4CC[C@@]32C)/C1=C(\CCC=C(C)C)C(=O)OCc1ccccc1 | 8.93% | 11% | 96%
11 | – | CC(=O)O[C@H]1C[C@@]2(C)[C@@H](C[C@@H](O)[C@H]3[C@@]4(C)CC[C@@H](O)[C@@H](C)[C@@H]4CC[C@@]32C)/C1=C(\CCC=C(C)C)C(=O)O [FUSIDIC ACID] | 2.18% | 14.9% | 91.3%
12 | – | CONC(=O)CCSSCCC(=O)O[C@@H]1CC[C@@]2(C)[C@@H](CC[C@@]3(C)[C@H]2[C@H](O)C[C@H]2/C(=C(\CCC=C(C)C)C(=O)OCc4ccccc4)[C@@H](OC(C)=O)C[C@@]23C)[C@@H]1C | – | – | 2.32%
13 | – | CC(=O)O[C@H]1C[C@@]2(C)[C@@H](C[C@@H](O)[C@H]3[C@@]4(C)CC[C@@H](OC(=O)c5ccccc5C(=O)n5ccnc5)[C@@H](C)[C@@H]4CC[C@@]32C)/C1=C(\CCC=C(C)C)C(=O)OCc1ccccc1 | – | – | 59.5%
14 | – | CC(=O)O[C@H]1C[C@@]2(C)[C@@H](C[C@@H](O)[C@H]3[C@@]4(C)CC[C@@H](OC(=O)c5ccccc5C(=O)NOC(C)(C)C)[C@@H](C)[C@@H]4CC[C@@]32C)/C1=C(\CCC=C(C)C)C(=O)OCc1ccccc1 | 13.5% | 25.9% | 98.3%
15 | – | CC(=O)O[C@H]1C[C@@]2(C)[C@@H](C[C@@H](O)[C@H]3[C@@]4(C)CC[C@@H](OC(=O)c5ccccc5C(=O)NOC5CCCCO5)[C@@H](C)[C@@H]4CC[C@@]32C)/C1=C(\CCC=C(C)C)C(=O)OCc1ccccc1 (some centres undefined) | 7.93% | 19.4% | 94.1%
16 | – | CON(C)C(=O)/C(CCC=C(C)C)=C1\[C@@H](OC(C)=O)C[C@@]2(C)[C@H]1C[C@@H](O)[C@H]1[C@@]3(C)CC[C@@H](O)[C@@H](C)[C@@H]3CC[C@@]12C | – | – | 55.5%
17 | – | CC(=O)O[C@H]1C[C@@]2(C)[C@@H](C[C@@H](O)[C@H]3[C@@]4(C)CC[C@@H](O)[C@@H](C)[C@@H]4CC[C@@]32C)/C1=C(\CCC=C(C)C)C(=O)NOC(=O)c1ccc([N+](=O)[O-])cc1 | – | – | 70.8%

Row | IC50 (RAW264.7 [4]) | Structure (SMILES) | inhibition at 2.5 µM (RAW264.7 [1]) | inhibition at 5 µM (RAW264.7 [2]) | viability at 24 h, 40 µM [3]
18 | – | CC(=O)O[C@H]1C[C@@]2(C)[C@@H](C[C@@H](O)[C@H]3[C@@]4(C)CC[C@@H](OC(=O)CCSSCCC(=O)N(C)O)[C@@H](C)[C@@H]4CC[C@@]32C)/C1=C(\CCC=C(C)C)C(=O)OCc1ccccc1 | – | – | 48.8%
19 | – | CC(=O)O[C@H]1C[C@@]2(C)[C@@H](C[C@@H](O)[C@H]3[C@@]4(C)CC[C@@H](O)[C@@H](C)[C@@H]4CC[C@@]32C)/C1=C(\CCC=C(C)C)C(=O)NOC1CCCCO1 (some centres undefined) | – | – | 2.83%
20 | 2.5 µM | CON(C)C(=O)CCSSCCC(=O)O[C@@H]1CC[C@@]2(C)[C@@H](CC[C@@]3(C)[C@H]2[C@H](O)C[C@H]2/C(=C(\CCC=C(C)C)C(=O)OCc4ccccc4)[C@@H](OC(C)=O)C[C@@]23C)[C@@H]1C | 54.6% | 59.3% | 90.2%
21 | – | CC(=O)O[C@H]1C[C@@]2(C)[C@@H](C[C@@H](O)[C@H]3[C@@]4(C)CC[C@@H](OC(=O)CCSSCCC(=O)NOc5ccc([N+](=O)[O-])cc5)[C@@H](C)[C@@H]4CC[C@@]32C)/C1=C(\CCC=C(C)C)C(=O)OCc1ccccc1 | 14.9% | 28.4% | 103%
22 | – | C=CCONC(=O)/C(CCC=C(C)C)=C1\[C@@H](OC(C)=O)C[C@@]2(C)[C@H]1C[C@@H](O)[C@H]1[C@@]3(C)CC[C@@H](O)[C@@H](C)[C@@H]3CC[C@@]12C | 17.7% | 21.3% | 90.8%
23 | – | CC(=O)O[C@H]1C[C@@]2(C)[C@@H](C[C@@H](O)[C@H]3[C@@]4(C)CC[C@@H](OC(=O)CCSSCCC(=O)N(O)C5CCCCC5)[C@@H](C)[C@@H]4CC[C@@]32C)/C1=C(\CCC=C(C)C)C(=O)OCc1ccccc1 | – | – | 80.1%
24 | 6.92 µM | CON(C)C(=O)c1ccccc1C(=O)O[C@@H]1CC[C@@]2(C)[C@@H](CC[C@@]3(C)[C@H]2[C@H](O)C[C@H]2/C(=C(\CCC=C(C)C)C(=O)OCc4ccccc4)[C@@H](OC(C)=O)C[C@@]23C)[C@@H]1C | 24% | 44.5% | 100%
25 | – | CCN1CCN(C(=O)c2ccccc2C(=O)O[C@@H]2CC[C@@]3(C)[C@@H](CC[C@@]4(C)[C@H]3[C@H](O)C[C@H]3/C(=C(\CCC=C(C)C)C(=O)OCc5ccccc5)[C@@H](OC(C)=O)C[C@@]34C)[C@@H]2C)CC1 | – | – | 5.62%
26 | 10 µM | CC(=O)O[C@H]1C[C@@]2(C)[C@@H](C[C@@H](O)[C@H]3[C@@]4(C)CC[C@@H](OC(=O)CCSSCCC(=O)NOC(=O)c5ccc([N+](=O)[O-])cc5)[C@@H](C)[C@@H]4CC[C@@]32C)/C1=C(\CCC=C(C)C)C(=O)OCc1ccccc1 | 33.3% | 44.8% | 91%
27 | – | CC(=O)O[C@H]1C[C@@]2(C)[C@@H](C[C@@H](O)[C@H]3[C@@]4(C)CC[C@@H](OC(=O)c5ccccc5C(=O)N5CCN(C)CC5)[C@@H](C)[C@@H]4CC[C@@]32C)/C1=C(\CCC=C(C)C)C(=O)OCc1ccccc1 | 8.43% | 14.7% | 108%
28 | – | CC(=O)O[C@H]1C[C@@]2(C)[C@@H](C[C@@H](O)[C@H]3[C@@]4(C)CC[C@@H](O)[C@@H](C)[C@@H]4CC[C@@]32C)/C1=C(\CCC=C(C)C)C(=O)NOc1ccc([N+](=O)[O-])cc1[N+](=O)[O-] | – | – | 15.2%
29 | 2.62 µM | CC(=O)O[C@H]1C[C@@]2(C)[C@@H](C[C@@H](O)[C@H]3[C@@]4(C)CC[C@@H](OC(=O)CCSSCCC(=O)NOC5CCCCO5)[C@@H](C)[C@@H]4CC[C@@]32C)/C1=C(\CCC=C(C)C)C(=O)OCc1ccccc1 (some centres undefined) | 55.2% | 65.2% | 90.2%
30 | – | CC(=O)O[C@H]1C[C@@]2(C)[C@@H](C[C@@H](O)[C@H]3[C@@]4(C)CC[C@@H](O)[C@@H](C)[C@@H]4CC[C@@]32C)/C1=C(\CCC=C(C)C)C(=O)NOC(C)(C)C | – | – | 84.3%
31 | – | CONC(=O)c1ccccc1C(=O)O[C@@H]1CC[C@@]2(C)[C@@H](CC[C@@]3(C)[C@H]2[C@H](O)C[C@H]2/C(=C(\CCC=C(C)C)C(=O)OCc4ccccc4)[C@@H](OC(C)=O)C[C@@]23C)[C@@H]1C | 17.3% | 27% | 106%
32 | 7.61 µM | CC(=O)O[C@H]1C[C@@]2(C)[C@@H](C[C@@H](O)[C@H]3[C@@]4(C)CC[C@@H](OC(=O)c5ccccc5C(=O)N5CCOCC5)[C@@H](C)[C@@H]4CC[C@@]32C)/C1=C(\CCC=C(C)C)C(=O)OCc1ccccc1 | 28.4% | 44.5% | 102%
33 | – | CC(=O)O[C@H]1C[C@@]2(C)[C@@H](C[C@@H](O)[C@H]3[C@@]4(C)CC[C@@H](OC(=O)CCSSCCC(=O)NOCc5ccccc5)[C@@H](C)[C@@H]4CC[C@@]32C)/C1=C(\CCC=C(C)C)C(=O)OCc1ccccc1 | 8.17% | 12.5% | 98.4%
